The text below walks through data of ChEMBL document CHEMBL1201862, “PubChem BioAssay data set” (2004).

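Compound exposure: 48 hours, 5 concentrations, 96-well plates. GI50 = concentration required for 50% inhibition of growth.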 Calls of active or inactive are those of the source. Rule as the data show it: active = GI50 up to about 1.1 µM and inactive = higher.

Test systems include SK-MEL-28; M14; SK-MEL-2; U-251; SK-MEL-5; NCI/ADR-RES; NCI-H226; MDA-N; SK-OV-3; SF-268; PC-3; T47D; HCC 2998; HCT-116; NCI-H522; HL-60; SNB-75; Malme-3M; CAKI-1.
Holding throughout (test): NCI-60 cell line screen, 48 h

For `COc1cc2nc(-c3ccccc3)cc(O)c2c(OC)c1OC`, the GI50 with SK-MEL-28, in the assay on M14, in the assay on SK-MEL-2, in the assay on U-251, with SK-MEL-5 and in the assay with NCI/ADR-RES was > 100 µM (inactive) in each case. Also, the GI50 in the assay on NCI-H226 was > 100 µM (inactive); with MDA-N it was > 100 µM (inactive); in the assay on SK-OV-3, > 100 µM (inactive); in the assay with SF-268 it was > 100 µM (inactive); in the assay with PC-3 it was > 100 µM (inactive); in the assay on T47D it was 34.1 µM (inactive). For the same molecule, the GI50 in the assay on HCC 2998, with HCT-116, in the assay on NCI-H522, in the assay with HL-60, with SNB-75 and in the assay on Malme-3M was > 100 µM (inactive) each time.

As to `CC1(C)OC[C@@H](/C=C\CCO[Si](c2ccccc2)(c2ccccc2)C(C)(C)C)N1C(=O)c1ccccc1`, the GI50 with SK-MEL-28 is 30.3 µM (inactive); in the assay with M14, 7.08 µM (inactive); in the assay on SK-MEL-2, 5.24 µM (inactive); with U-251, 12.7 µM (inactive); with SK-MEL-5 it was 2.51 µM (inactive); in the assay with NCI/ADR-RES, 9.14 µM (inactive). For the same molecule, the GI50 in the assay on NCI-H226 is 7.94 µM (inactive); in the assay with MDA-N, 15.8 µM (inactive); with SK-OV-3, 48.2 µM (inactive); in the assay on SF-268 it was 13.9 µM (inactive); with CAKI-1, 9.4 µM (inactive); in the assay on PC-3, 4.07 µM (inactive). Moreover, the GI50 is 4.06 µM (inactive) in the assay with T47D; 7.46 µM (inactive) in the assay with HCC 2998; 3.41 µM (inactive) in the assay on HCT-116; 3.61 µM (inactive) in the assay on NCI-H522; 2.51 µM (inactive) in the assay on HL-60; > 100 µM (inactive) with SNB-75.

In the case of `O=C(/C(=C/c1cccs1)c1ccccc1)c1ccccc1`, the GI50 was > 100 µM (inactive) in the assay with SK-MEL-28; > 100 µM (inactive) with M14; 40.2 µM (inactive) in the assay on SK-MEL-2; 77.1 µM (inactive) in the assay on U-251; > 100 µM (inactive) with SK-MEL-5; > 100 µM (inactive) in the assay with NCI/ADR-RES. Besides, the GI50 with NCI-H226 is > 100 µM (inactive); in the assay with MDA-N, > 100 µM (inactive); with SK-OV-3, > 100 µM (inactive); with SF-268 it was > 100 µM (inactive); in the assay on CAKI-1, > 100 µM (inactive); in the assay on PC-3 it was 25.6 µM (inactive). Also, the GI50 is > 100 µM (inactive) with T47D; > 100 µM (inactive) in the assay on HCC 2998; > 100 µM (inactive) in the assay with HCT-116; 53.7 µM (inactive) with NCI-H522; 47.4 µM (inactive) with HL-60; 37.7 µM (inactive) in the assay with SNB-75.

For `CCCCCCc1nn2c(-c3ccncc3)nnc2s1`, the GI50 in the assay with SK-MEL-28, in the assay with M14, in the assay on SK-MEL-2, with U-251, in the assay on SK-MEL-5 and in the assay on NCI/ADR-RES was > 10 µM (inactive) in each case. Further, the GI50 in the assay on NCI-H226, with MDA-N, in the assay with SK-OV-3, in the assay on SF-268, in the assay with CAKI-1 and with PC-3 was > 10 µM (inactive) in each case. For the same molecule, the GI50 in the assay on T47D, with HCC 2998, in the assay with HCT-116, in the assay with NCI-H522, in the assay on HL-60 and in the assay with Malme-3M was > 10 µM (inactive) in each case.

With `CN(C)CCCn1nc(N)c2nc3cc(Cl)ccc3nc21`, the GI50 was 18.1 µM (inactive) in the assay on SK-MEL-28; 20.7 µM (inactive) in the assay on M14; 28.3 µM (inactive) with SK-MEL-2; 44.8 µM (inactive) in the assay on U-251; 20 µM (inactive) in the assay on SK-MEL-5; 71.8 µM (inactive) in the assay with NCI/ADR-RES. For the same molecule, the GI50 with NCI-H226 is 45.2 µM (inactive); in the assay on MDA-N, 52.7 µM (inactive); in the assay with SK-OV-3 it was > 100 µM (inactive); in the assay on SF-268, 58.1 µM (inactive); with CAKI-1 it was > 79.6 µM (inactive); in the assay with PC-3, 41.4 µM (inactive). The GI50 is 92.3 µM (inactive) with T47D; 35.7 µM (inactive) in the assay with HCC 2998; 30.3 µM (inactive) in the assay with HCT-116; 61.9 µM (inactive) in the assay on NCI-H522; 67.8 µM (inactive) in the assay with SNB-75; 41.1 µM (inactive) with Malme-3M.

Regarding `CN1CC(S(=O)(=O)c2ccccc2)CC(S(=O)(=O)c2ccccc2)C1c1ccccc1` (centres undefined), the GI50 was 15.9 µM (inactive) in the assay on SK-MEL-28; 16.8 µM (inactive) in the assay with M14; 4.47 µM (inactive) with SK-MEL-2; 12.1 µM (inactive) in the assay with U-251; 14.6 µM (inactive) in the assay on SK-MEL-5; 23.3 µM (inactive) in the assay on NCI/ADR-RES. Besides, the GI50 in the assay with NCI-H226 was 21.2 µM (inactive); in the assay with MDA-N, 11.6 µM (inactive); with SK-OV-3, 39.1 µM (inactive); in the assay on SF-268, 16.2 µM (inactive); with CAKI-1, 10.8 µM (inactive); in the assay on PC-3 it was 12.1 µM (inactive). For the same molecule, the GI50 was 18.2 µM (inactive) in the assay on T47D; 15.9 µM (inactive) with HCC 2998; 10.4 µM (inactive) in the assay with HCT-116; 2.9 µM (inactive) with NCI-H522; 8.81 µM (inactive) in the assay on HL-60; 13.6 µM (inactive) in the assay on Malme-3M.

Regarding `Cc1nc(N)c(N2CCN(C#N)CC2)c(O)n1`, the GI50 in the assay on SK-MEL-28, in the assay on M14, in the assay with SK-MEL-2, in the assay on U-251, with NCI/ADR-RES and in the assay with NCI-H226 was > 100 µM (inactive) in each case. For the same molecule, the GI50 in the assay on MDA-N, in the assay on SF-268, with PC-3, in the assay on T47D, in the assay on HCC 2998 and with HCT-116 was > 100 µM (inactive) in each case. Moreover, the GI50 is > 100 µM (inactive) with NCI-H522, > 10 µM (inactive) with HL-60, > 100 µM (inactive) in the assay with SNB-75 and > 100 µM (inactive) with Malme-3M.

For the molecule `c1ccc2cc(CNCCCCNCCCNCc3ccc4ccccc4c3)ccc2c1`, the GI50 with SK-MEL-28 is 1.69 µM (inactive); in the assay with M14 it was 1.33 µM (inactive); in the assay with SK-MEL-2, 2.07 µM (inactive); in the assay with U-251, 0.564 µM (active); with SK-MEL-5, 2.4 µM (inactive); in the assay with NCI/ADR-RES, 1.68 µM (inactive). For the same molecule, the GI50 was 1.17 µM (inactive) in the assay on NCI-H226; 0.993 µM (active) with MDA-N; 1.76 µM (inactive) in the assay with SK-OV-3; 1.41 µM (inactive) in the assay with SF-268; 1.81 µM (inactive) in the assay on CAKI-1; 1.63 µM (inactive) in the assay on PC-3. Also, the GI50 in the assay with T47D is 2.77 µM (inactive); in the assay with HCC 2998 it was 0.48 µM (active); with HCT-116, 0.3 µM (active); in the assay with NCI-H522 it was 1.14 µM (inactive); in the assay on SNB-75 it was 1.5 µM (inactive); in the assay on Malme-3M it was 1.71 µM (inactive).

For `Cc1ccc(C2=C(C#N)C(=O)N3CCN=C3S2)cc1`, the GI50 with SK-MEL-28, in the assay on M14, in the assay with SK-MEL-2, in the assay with U-251, in the assay on SK-MEL-5 and with NCI/ADR-RES was > 100 µM (inactive) in each case. Moreover, the GI50 in the assay on NCI-H226, in the assay with MDA-N, with SK-OV-3, in the assay on CAKI-1, in the assay with PC-3 and in the assay with T47D was > 100 µM (inactive) each time. Further, the GI50 with HCC 2998 was > 100 µM (inactive); in the assay on HCT-116, > 100 µM (inactive); in the assay on NCI-H522, > 100 µM (inactive); in the assay with SNB-75, > 100 µM (inactive); with Malme-3M, 43.5 µM (inactive).

In the case of `Oc1ccccc1/C=N/Nc1nc(N/N=C/c2ccccc2O)nc(N/N=C/c2ccccc2O)n1`, the GI50 in the assay with SK-MEL-28 was > 100 µM (inactive); in the assay with M14, > 100 µM (inactive); in the assay on SK-MEL-2, 43.6 µM (inactive); in the assay on U-251, 47.1 µM (inactive); in the assay with SK-MEL-5, > 100 µM (inactive); in the assay on NCI/ADR-RES, 24.5 µM (inactive). The GI50 in the assay with NCI-H226 was 58.7 µM (inactive); in the assay with MDA-N, > 100 µM (inactive); in the assay on SK-OV-3, 71.9 µM (inactive); in the assay on SF-268, > 100 µM (inactive); with CAKI-1, > 100 µM (inactive); in the assay on PC-3, 78.2 µM (inactive). For the same molecule, the GI50 with T47D is 47.9 µM (inactive); with HCC 2998, > 100 µM (inactive); in the assay on HCT-116, 42.2 µM (inactive); in the assay with NCI-H522, 31.6 µM (inactive); with HL-60, > 100 µM (inactive); in the assay with Malme-3M it was > 100 µM (inactive).

Take `N#C/C=c1/c2ccccc2n2nc3ccccc3c12`: the GI50 in the assay on SK-MEL-28 is > 100 µM (inactive); with M14 it was 51.9 µM (inactive); in the assay on SK-MEL-2, 48.6 µM (inactive); in the assay with U-251, 12 µM (inactive); in the assay on SK-MEL-5 it was 26.7 µM (inactive); with NCI/ADR-RES, 14.9 µM (inactive). For the same molecule, the GI50 was > 100 µM (inactive) in the assay on MDA-N; 5.65 µM (inactive) in the assay on SK-OV-3; 10.9 µM (inactive) in the assay with SF-268; 6.85 µM (inactive) with CAKI-1; 68.4 µM (inactive) with PC-3; > 100 µM (inactive) in the assay with T47D. For the same molecule, the GI50 with HCC 2998 was 26.5 µM (inactive); in the assay with HCT-116 it was 3.09 µM (inactive); in the assay with NCI-H522 it was 12.5 µM (inactive); in the assay on HL-60, > 100 µM (inactive); in the assay on Malme-3M, 46.6 µM (inactive).
